Data published in ChEMBL document CHEMBL5705902, “Role of G Protein-Coupled Receptor Kinases 2 and 3 in μ-Opioid Receptor Desensitization and Internalization” (Mol Pharmacol, 2015).
Activity calls are given as the source filed them. The rule behind the calls is not given here.

What was measured:
[1] = target: Mu-type opioid receptor (Rattus norvegicus) (UniProt P33535); assay: Inhibition of MOPr desensitization in wistar rat LC neuron cells assessed as reduction in the DAMGO induced desensitization incubated for 15 mins in the presence of GSK650394; type: functional, cell-based
[2] = target: Mu-type opioid receptor (Rattus norvegicus) (UniProt P33535); assay: Inhibition of MOPr desensitization in wistar rat LC neuron cells assessed as reduction in the DAMGO induced desensitization incubated for 15 mins in the presence of Y-27632; type: functional, cell-based

Sequence of Mu-type opioid receptor (Rattus norvegicus) (P33535 whole entry): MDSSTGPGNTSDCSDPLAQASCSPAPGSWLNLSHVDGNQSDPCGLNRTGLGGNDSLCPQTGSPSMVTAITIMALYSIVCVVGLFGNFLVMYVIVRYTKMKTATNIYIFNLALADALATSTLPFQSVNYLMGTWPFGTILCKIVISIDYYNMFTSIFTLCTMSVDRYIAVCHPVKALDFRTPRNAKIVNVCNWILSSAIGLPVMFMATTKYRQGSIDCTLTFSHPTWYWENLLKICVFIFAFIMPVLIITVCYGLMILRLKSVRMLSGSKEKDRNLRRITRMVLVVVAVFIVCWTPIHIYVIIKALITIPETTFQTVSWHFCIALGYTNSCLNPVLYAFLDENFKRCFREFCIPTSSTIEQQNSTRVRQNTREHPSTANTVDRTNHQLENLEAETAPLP

Compound | inhibition [1] | inhibition [2]
C[C@@H](N)[C@H]1CC[C@H](C(=O)Nc2ccncc2)CC1 | inactive | 
O=C(O)c1ccc(-c2c[nH]c3ncc(-c4ccccc4)cc23)cc1C1CCCC1 |  | inactive
